Experimental data taken from patent US8710241B2, “Crystalline form of zofenopril calcium” (Generics [UK]Limited, priority 2007, dated 2014).
Where a name gives a salt, the structure may show the parent alone.

Columns and labels:
[1] = Water vapour sorption isotherm (Surface Measurement Systems DVS-HT); format: physicochemical; details: 25° C.; for Maximum water uptake: high/elevated relative humidity levels (greater than 90% rh), calcium salt
Protocol: Equilibrium water uptake levels of less than 0.5 wt % were observed up to a relative humidity level of 70% rh, which may be considered the uppermost limit of ambient humidity conditions.
Determination of the water vapour sorption isotherms of zofenopril calcium crystalline form D according to the invention and of the prior art form B were performed by Surface Measurement Systems DVS-HT. The resultant isotherms, as shown in FIGS. 4 and 5 respectively, were obtained under the following parameters: • Temperature=25° C. • Humidity profile: Desorption 1: 50-0% relative humidity (rh) in steps of 10% • Adsorption: 0-90% rh in steps of 10%, 95% rh • Desorption 2: 95% rh, 90-50% rh in steps of 10% • Equilibration time per rh stage: 240 min (0% rh), 180 min (all other rh levels)

[2] = TGA, 25-105° C.
Protocol: The compounds obtained by the processes according to the invention as described above and in the following examples were also subjected to thermogravimetric analysis (TGA). […] The TGA analysis data was obtained using a Mettler-Toledo TGA851e apparatus under the following parameters: • Temperature profile: 25-300° C.@5° C./min • Nitrogen purge gas: 50 ml/min • Aluminium pan: 40 μl, pierced prior to scan

[3] = Conditioning (equilibration) of dried samples, characterised by XRPD; format: physicochemical; details: conditioned at 30° C. for 30 minutes under nitrogen after drying
Protocol: Approximately 100 mg of zofenopril calcium were dried at 50° C. for 120 minutes under a nitrogen flow atmosphere (flow rate: 500 ml/min). The sample was finally conditioned at 30° C. for 30 minutes under the nitrogen gas atmosphere.
The drying processes as detailed in the above examples yield the novel anhydrous form D of zofenopril calcium according to the invention. […] Thus, the compounds prepared by examples 1-5 were determined to be the same crystalline form and were distinct from the prior art forms A, B, and C. Further, the samples were then ‘conditioned’, i.e. they were allowed to equilibrate.

[4] = DSC and XRPD experiments on polymorphic transition; format: physicochemical; details: up to temperatures of ca. 140° C.
Protocol: The X-ray powder diffraction data was obtained by methods known in the art using a Bruker D8 Advance Powder Diffractometer with scintillation detector under the following parameters: • Reflectance mode • Cu Kα radiation (1.5406 Å) • Scanning range: 2-30 °2θ • Step size: 0.02 °2θ • Time per step: 6s

Compound	Maximum water uptake [1]	Weight loss, equivalent to loss on drying (LOD) [2]	Conversion upon cooling to hydrated form C or another crystalline form [3]	Equilibrium water uptake ([1]; up to a relative humidity level of 70% rh)	Re-conversion to hydrate form C upon exposure to water vapour ([1]; water vapour sorption isotherm, 0-95% rh)	Polymorphic transition [4]
C[C@H](CSC(=O)c1ccccc1)C(=O)N1C[C@@H](Sc2ccccc2)C[C@H]1C(=O)O [form B, (4S)-1-[(2S)-3-(benzoylthio)-2-methylpropionyl]-4-(phenylthio)-L-proline calcium salt, reference compound]	approximately 2.5 wt %	–	–	–	–	–
C[C@H](CSC(=O)c1ccccc1)C(=O)N1C[C@@H](Sc2ccccc2)C[C@H]1C(=O)O [form D, (4S)-1-[(2S)-3-(benzoylthio)-2-methylpropionyl]-4-(phenylthio)-L-proline calcium salt]	ca. 1 wt %	less than 0.5 wt %	no conversion	less than 0.5 wt %	does not easily re-convert to hydrate form C	no polymorphic transition
